Assays:
dengue virus type 1 = test: Antiviral activity against Dengue virus 1 infected in syrian hamster BHK-21 cells assessed as inhibition of plaque formation pretreated with compound for 45 mins followed by viral infection for 24 hrs; assay type: functional; details: BHK-21, 24.75 h, time 1485 min
dengue virus type 2 = test: Antiviral activity against Dengue virus 2 infected in syrian hamster BHK-21 cells assessed as inhibition of plaque formation pretreated with compound for 45 mins followed by viral infection for 24 hrs; assay type: functional; details: BHK-21, 24.75 h, time 1485 min
[1] = Cytotoxicity against mouse BaF3 cells expressing BCR-ABL assessed as cell viability; assay type: toxicity, cell-based
dengue virus type 3 = test: Antiviral activity against Dengue virus 3 infected in syrian hamster BHK-21 cells assessed as inhibition of plaque formation pretreated with compound for 45 mins followed by viral infection for 24 hrs; assay type: functional; details: BHK-21, 24.75 h, time 1485 min
Kunjin virus = test: Antiviral activity against Kunjin virus; assay type: functional, organism-based; details: West Nile virus
dengue virus type 4 = test: Antiviral activity against Dengue virus 4 infected in syrian hamster BHK-21 cells assessed as inhibition of plaque formation pretreated with compound for 45 mins followed by viral infection for 24 hrs; assay type: functional; details: BHK-21, 24.75 h, time 1485 min

IC90 (dengue virus type 1): 20 µM
IC90 (dengue virus type 2): 20 µM
IC90 (dengue virus type 3): 20 µM
EC50 (Kunjin virus): > 20 µM
IC90 (dengue virus type 4): 20 µM
Compound: NC(=O)c1cccc(-c2cc(Nc3ccc(OC(F)(F)F)cc3)ncn2)c1
IC50 [1]: > 10 µM
